Reference: patent US7384983B2, “Inhibitor of monoamine uptake” (Eli Lilly and Company, priority 2001, dated 2008)
pKi: −log10 of the molar value.

Legend:
uptake of serotonin = assay: Microdialysis Assays of Monoamines: inhibition of serotonin uptake; settings: tested essentially as described for microdialysis assays
Procedure: (§1) Microdialysis Assays of Monoamines
(§2) Sprague-Dawley rats (Harlan or Charles River) weighing 270-300 grams are surgically implanted with microdialysis probes under chloral hydrate/pentobarbital anesthesia (170 and 36 mg/kg i.p. in 30% propylene glycol, 14% ethanol) as described by Perry and Fuller. (Perry and Fuller, Effect of fluoxetine on serotonin and dopamine concentration in rat hypothalamus after administration of fluoxetine plus L-5-hydroxytryptophan, Life Sci., 50, 1683-90 (1992)). A David Kopf stereotaxic instrument is used to implant the probe unilaterally in the hypothalamus at coordinates rostral −1.5 mm, lateral −1.3 mm, and ventral −9.0 mm (Paxinos and Watson, 1986). After a 48-hour recovery period, rats are placed in a large plastic bowl with a mounted liquid swivel system (CMA/120 system for freely moving animals, Bioanalytical Systems, West Lafayette, Ind.). Filtered artificial cerebrospinal fluid (CSF) (150 mM NaCl, 3.0 MM KCl, 1.7 mM CaCl2, and 0.9 mM MgCl2) is perfused through the probe at a rate of […]. […]
(§3) The method used to measure monoamines is as described by Perry and Fuller (1992). […] The electrochemical detector (EG&G, Model 400) for the amine column is set at a potential of 400 mV and a sensitivity of 0.2 nA/V. Basal levels are measured for at least 90 minutes prior to drug administration. […]

uptake of norepinephrine = assay: Microdialysis Assays of Monoamines: inhibition of norepinephrine uptake; type: in vivo, Sprague-Dawley rats; settings: tested essentially as described for microdialysis assays
Procedure: as §1, §2, §3

CNCC[C@@H](Oc1ccc(O)cc1C)c1ccccc1 [R-(−)-N-methyl 3-((2-methyl-4-hydroxyphenyl)oxy)-3-phenyl-1-aminopropane]
pKi (uptake of serotonin): 7.37
pKi (uptake of norepinephrine): 8.52
